Results: patent US8361968B2 (Takeda Pharmaceutical Company Limited, priority 2002, dated 2013)
Square brackets hold non-standard residues; d marks the D form. Peptide text beside a SMILES is read from it. * marks the point of attachment. Propanoyl(3-(3-pyridyl)) = O=C(CCc1cccnc1)*; Arg(Me) = CNC(=N)NCCC[C@H](N)C(=O)O; azaGly = NNC(=O)O

Target: hOT7T175 (Homo sapiens, UniProt Q969F8, L364H)
Test: hOT7T175 receptor binding activity: binding inhibition of Cy-5-labeled metastin (40-54) on hOT7T175-expressed CHO cells
Parameters: expressed in transfected cells; host or cells: CHO cells

Sequence of hOT7T175 (Q969F8 whole entry L364H): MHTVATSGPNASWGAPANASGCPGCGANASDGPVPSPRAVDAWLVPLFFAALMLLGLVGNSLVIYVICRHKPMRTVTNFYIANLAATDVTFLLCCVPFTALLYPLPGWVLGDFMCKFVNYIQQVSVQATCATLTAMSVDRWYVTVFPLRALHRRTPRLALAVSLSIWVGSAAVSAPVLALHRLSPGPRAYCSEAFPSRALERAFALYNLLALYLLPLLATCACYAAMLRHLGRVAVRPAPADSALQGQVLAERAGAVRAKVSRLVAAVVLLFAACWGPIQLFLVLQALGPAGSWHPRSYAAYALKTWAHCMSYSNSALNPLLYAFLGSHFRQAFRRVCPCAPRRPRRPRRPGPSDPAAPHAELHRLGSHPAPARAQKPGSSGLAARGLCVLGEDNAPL

In the case of `CNC(=N)NCCC[C@H](NC(=O)[C@H](CC(C)C)NC(=O)NNC(=O)[C@H](Cc1ccccc1)NC(=O)[C@H](CO)NC(=O)[C@H](CC(N)=O)NC(=O)CCc1cccnc1)C(=O)N[C@@H](Cc1ccccc1)C(N)=O` [Compound No. 322, 3-Pyridylpropionyl-Asn-Ser-Phe-AzaGly-Leu-Arg(Me)-Phe-NH2] ({Propanoyl(3-(3-pyridyl))}-NSF[azaGly]L[Arg(Me)]F-NH2), the IC50 is reported as 0.054 µM.
